Experimental data from PubChem BioAssay (NCI).
Several values for one entry are separate records, joined by “and”; a condition that tells them apart may be missing. Identical values can stand only once.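 Growth conditions: 96-well plates. Treatment: test compound, 48 hours, 5 concentrations. Analysis: linear interpolation between bracketing concentrations; unreached endpoints set to highest concentration. GI50 marks 50% less growth. Definition used: TGI = concentration required for complete inhibition of growth.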 *1 amine or outer side, *2 acyl side, *3 side chain or, on linkers, in order; H or OH if unused. Where a SMILES comes first, the peptide text is derived from it. Bridges are numbered along the chain shown (N, C = ends). Roman numbers before positions name the chains, in order. [ ]: non-standard residue; d: D form. Actinocin(9to1) = Cc1c2oc3c(C)ccc(C(=O)[*:1])c3nc-2c(C(=O)[*:2])c(N)c1=O; NMeT = CN[CH](C(=O)O)[CH](C)O; Sar = CNCC(=O)O

How the values were obtained:
Test in all cases: DTP human tumour cell line panel, 48 h
IGROV1 ovarian = test system: IGROV1 ovarian
KM12 colon = test system: KM12 colon
MCF7 breast = test system: MCF7 breast
NCI-H226 lung = test system: NCI-H226 lung
OVCAR-4 ovarian = test system: OVCAR-4 ovarian
SK-OV-3 ovarian = test system: SK-OV-3 ovarian
SNB-75 CNS = test system: SNB-75 CNS
SW-620 colon = test system: SW-620 colon
TK-10 renal = test system: TK-10 renal
UO-31 renal = test system: UO-31 renal

| Structure (SMILES) | GI50 (IGROV1 ovarian) | TGI (IGROV1 ovarian) | GI50 (KM12 colon) | TGI (KM12 colon) | GI50 (MCF7 breast) | TGI (MCF7 breast) | GI50 (NCI-H226 lung) | TGI (NCI-H226 lung) | GI50 (OVCAR-4 ovarian) | TGI (OVCAR-4 ovarian) | GI50 (SK-OV-3 ovarian) | TGI (SK-OV-3 ovarian) | GI50 (SNB-75 CNS) | TGI (SNB-75 CNS) | GI50 (SW-620 colon) | TGI (SW-620 colon) | GI50 (TK-10 renal) | TGI (TK-10 renal) | GI50 (UO-31 renal) | TGI (UO-31 renal) |
| --- | --- | --- | --- | --- | --- | --- | --- | --- | --- | --- | --- | --- | --- | --- | --- | --- | --- | --- | --- | --- |
| Cc1ccc2c(-c3ccnc(Nc4ccccc4)n3)c(-c3ccc(F)cc3)nn2n1 | 1.13 µM | 16.5 µM | 7.05 µM | > 25 µM | 7.44 µM | > 25 µM | 8.23 µM | 24.2 µM | 11.1 µM | > 25 µM | 1.39 µM | > 25 µM | > 8.35 µM | > 25 µM | 8.37 µM | > 25 µM | 1.62 µM | 10.8 µM | 1.01 µM | > 24.1 µM |
| C#CC1(OC(C)=O)CCC2C3CC=C4C=C(OC(C)=O)CCC4(C)C3CCC21C (stereo not given) |  | 35.9 µM |  | 40.2 µM |  | 49.9 µM |  | 63 µM |  | 72.2 µM |  | > 100 µM |  | > 100 µM |  | 49.3 µM |  | 51.6 µM |  | 54.4 µM |
| Cc1c2oc3c(C)ccc(C(=O)NC4C(=O)NC(C(C)C)C(=O)N5CCCC5C(=O)N(C)CC(=O)N(C)C(C(C)O)C(=O)OC4C)c3nc-2c(C(=O)NC2C(=O)NC(C(C)C)C(=O)N3CCCC3C(=O)N(C)CC(=O)N(C)C(C(C)O)C(=O)OC2C)c(N)c1=O (stereo not given) (I: TVP[Sar][NMeT] / II: TVP[Sar][NMeT]; ester I:1-I:C, II:1-II:C; linker I:N-II:N via Actinocin(9to1); configuration not given here) |  | > 41.7 µM |  | > 100 µM |  | > 1 µM | 1.47 µM and 0.618 µM | 26.8 µM and > 1 µM | 6.1 µM and > 1 µM | 32.4 µM and > 1 µM | 5.75 µM and > 1 µM | > 100 µM |  | 3.43 µM and 0.839 µM |  | 43.4 µM and > 1 µM | 4.2 µM and > 1 µM | > 28.8 µM | 2.99 µM and > 1 µM | 24.8 µM and > 1 µM |
| Cc1cc(O)cc2c1[C@]1(C)CCC3C(C)(C)CCC[C@]3(C)[C@H]1C2 (stereo not given in full) | 20.5 µM | 36.9 µM | 20 µM | 35.3 µM | 18.6 µM | 33.3 µM | 22.4 µM | 41.4 µM | 17.5 µM | 33.8 µM | 21.9 µM | 38.6 µM | 17.9 µM | 34.2 µM | 18.5 µM | 33.6 µM | 18.7 µM | 36.4 µM | 20.5 µM | 36.4 µM |
| CNC/C(Cl)=N/S(=O)(=O)c1ccc(C)cc1 |  | 91.2 µM |  | 27.7 µM |  | 23.7 µM |  | 59.5 µM |  | 25.4 µM |  | 56.6 µM |  | 18.4 µM |  | > 100 µM |  | 28.6 µM |  | 36.6 µM |
| C/C(=N\Nc1cc(C)c2ccccc2n1)c1ccccn1 |  | 1.49 µM | 0.0789 µM | 1.76 µM | 0.0894 µM | 1.16 µM | 0.225 µM | 2.71 µM |  | 2.22 µM | 0.119 µM | 8.38 µM | 0.212 µM | 5.4 µM |  | 1.98 µM |  | 2.76 µM | < 0.0377 µM | 0.903 µM |
| CC1(C)CC2=C(Sc3ccccc3N2)C(=O)C1C(=O)C(=O)Nc1cccc([N+](=O)[O-])c1 (stereo not given) |  | > 100 µM |  | > 100 µM |  | > 100 µM |  | > 100 µM |  | > 100 µM |  | > 100 µM |  | > 100 µM |  | > 100 µM |  | > 100 µM |  | > 100 µM |
| CC(C)C[C@H](NC(=O)Cn1ccc(NCc2ccccc2)cc1=O)B(O)O | 8.05 µM | 54.7 µM | 3.62 µM | 17.1 µM | 0.413 µM | > 100 µM | 1.19 µM | 5.84 µM | 4.59 µM | > 100 µM | 13.7 µM | > 100 µM | 2.33 µM | 9.72 µM | 0.557 µM | > 28.6 µM | 0.472 µM | 5.23 µM | 1.21 µM | 10.6 µM |
| Cc1ccc(NC2=C(Cl)C(=O)N(Cc3ccc(Cl)cc3)C2=O)cc1O | 11.2 µM | 33 µM | 13.8 µM | 39.6 µM | 6.73 µM | 27.5 µM | 2.55 µM | 13.3 µM | 25.4 µM | > 100 µM | 10.9 µM | 32.3 µM |  |  | 7.76 µM | 66.6 µM | 15.2 µM | 32.4 µM | 17.6 µM | 69 µM |
| CC1=C(C(=O)Nc2ccc(Cl)c(Cl)c2)C(c2cccc(Cl)c2)NC(=O)N1 (stereo not given) | 7.51 µM | 21.6 µM | 0.239 µM | 2.48 µM | 2.11 µM | 13.5 µM | 7.69 µM | 18.6 µM | 14.1 µM | > 50 µM | 10.6 µM | 20.7 µM | 9.67 µM | 28.7 µM | 12.6 µM | > 29.4 µM | 0.22 µM | 0.346 µM | 8.2 µM | 15.9 µM |
| Cc1cc(=O)oc2c(C)c(O)ccc12 |  | > 100 µM |  | > 100 µM |  | > 100 µM |  | > 100 µM |  | > 100 µM |  |  |  | > 100 µM |  | > 100 µM |  |  |  | > 100 µM |
| COc1cc2ncn(-c3cc(O[C@@H](C)c4ccccc4Cl)c(C(N)=O)s3)c2cc1OC | 3.69 µM | > 25 µM | 0.559 µM | > 25 µM | 0.111 µM | > 25 µM | 2.3 µM | > 19.4 µM | 3.53 µM | > 25 µM | 0.803 µM | > 25 µM | 3.86 µM | > 25 µM | 0.612 µM | > 25 µM | 4.14 µM | > 23.1 µM | 5.3 µM | > 25 µM |
| C=C(CN1CCN(c2cccc(C(F)(F)F)n2)CC1)c1ccc(C(=O)Nc2ccccc2N)cc1 | 2.01 µM and 0.365 µM | 26.9 µM and 7.29 µM | 0.668 µM and 0.455 µM | > 100 µM | 0.349 µM and 0.293 µM | > 100 µM | 13.4 µM and 20.9 µM | > 100 µM | 8.37 µM and 1.41 µM | > 100 µM | 2.55 µM and 0.634 µM | 42.4 µM and 21.2 µM | 0.673 µM and 0.21 µM | 12.2 µM and 2.19 µM | 0.528 µM and 0.416 µM | > 100 µM |  | > 100 µM and 35.4 µM | 2.76 µM and 0.465 µM | 72.2 µM and > 76.6 µM |
| Cc1cccc(C)c1NC(=O)C(=O)CC(=O)/C=C/c1ccccc1 |  | > 100 µM |  | > 100 µM |  | > 100 µM |  | > 100 µM |  | > 100 µM |  | > 100 µM |  | > 100 µM |  | > 100 µM |  | > 100 µM |  | > 100 µM |
| C=CC1CCC[N+]1(CC(=O)OCC)Cc1ccccc1 (stereo not given) |  | > 100 µM |  |  |  | > 100 µM |  | > 100 µM |  | > 100 µM |  | > 100 µM |  | > 100 µM |  | > 100 µM |  | > 100 µM |  | > 100 µM |
